Assay [1] deals with patient, a child with symptoms of autism. The assay is described as follows: Intravenous secretin infusion in a child with symptoms of autism (Example 1). In kind it is in vivo, human. As for the experimental part: The present invention will be better understood from the following examples which are given by way of illustration and not by way of limitation. The patient, the same in both examples, is a child with symptoms of autism.
When the patient was […], the secretin was administered by way of an infusion as part of an upper gastrointestinal endoscopy. The secretin was used in this diagnostic procedure at the request of the patient's parents, one of which is an inventor of the present invention. The secretin used in this procedure is known as Secretin-Ferring available from Ferring Laboratories, Inc., Suffern, N.Y. (See Appendix A). The secretin was dissolved in a […] solution of sodium chloride and administered in a dosage of 2 clinical units (CU) per kilogram (kg) body weight by intravenous injection over one minute. (I.E. 30 IU IV for approximately 15 kilograms of body weight.)
The diagnostic tests performed on the patient during this procedure also indicated gastric inflammation. […] The following Table I summarizes the improvements observed in the patient within 3 weeks after the infusion of secretin.
Biomedical changes were also measured in the patient.
At the request of the patient's parents, a second infusion of secretin was performed about 9 months after the first infusion, and a third infusion of secretin was performed about three months after the second infusion.

For assay [2] the test system is unchanged. Briefly: Daily transdermal secretin with DMSO in the same patient (Example 2). The assay is classed as in vivo, human. Conditions: about 15 CU daily. As for the experimental part:
At the time of this treatment, the patient was […]. Secretin was administered transdermally using pharmaceutical grade dimethyl sulfoxide (DMSO) (generally 99.9% pure) available from Clinic Service Co., Box 2512, Hemet Calif. 92543. The secretin (Secretin-Ferring) was administered daily in a dosage of about 75 CU over a five day period (i.e., about 15 CU daily) For each treatment, about 4 drops of DMSO were placed onto the skin of the patient, about 15 CU of the crystalline secretin was placed onto the DMSO, and the composition was rubbed into the skin.

The test system of a further assay is abnormal opioid peptides. To be noted: autistic children responding to casein free and gluten free diet, after the secretin infusion; cited from earlier work.

No end group written: not given here.

In the case of “secretin (HSDGTFTSELSRLRDSARLQRLLQGLV-NH2; ends and bridges not checked; UniProt P63298 33-59, looked up) [polypeptide hormone secreted by the mucosa of the duodenum and upper jejunum; used as Secretin-Ferring from Ferring Laboratories]”, the “time at which the rate of the patient's progress appeared to decrease” value in assay [1] (after the first infusion) is listed as “about 5 weeks”. In addition, the “perfusion of the right posterior parietal and right temporal lobes (SPECT scan)” value in assay [1] (after the treatment) is reported as “improved”. The “results of second and third infusions” value in assay [1] (second infusion about 9 months after the first, third about three months after the second) is reported as “achieved the same results”. Moreover, the imitation of commands entry in assay [1] (within 3 weeks after infusion, before: did not imitate) was “Will imitate almost any multi-step command”. Also, the diet preferences entry in assay [1] (within 3 weeks after infusion, before: limited diet preferences) is “No Change”. Also, in assay [1] (within 3 weeks after infusion, before: no apparent connections), the “connections made between language and objects” value was “Many connections made between new language”. In assay [1] (within 3 weeks after infusion, before: watch videos), the interaction with videos result is reported as “Now, gets “involved” interactively with their videos”. In addition, in assay [1] (within days after the administration, no change in diet), the “chronic abnormal bowel movements” value is recorded as “became normal”. The overall improvements result in assay [2] is “even more dramatic and significant improvements”. Further, the abnormal opioid peptides entry in the assay on abnormal opioid peptides is listed as “the peptides disappeared”.

The record behind these values is US20050249714A1, “Method of using secretin and compositions made therefrom for the treatment of autism and other neurological, behavioral and immunological disorders” (Repligen Corporation, a Massachusetts corporation, priority 1997, published 2005).
